Test system: white fly Bemisia tabaci
Assay: Bemisia test
Type: in vivo
Settings: concentration of active compound 0.0008 %, infested cotton plants (Gossypium hirsutum) with eggs, larvae and pupae dipped into preparation
Description: Solvent: 7.5 parts by weight of dimethylformamide
Emulsifier: 2.5 parts by weight of alkylaryl polyglycol ether
To produce a suitable preparation of active compound, 1 part by weight of active compound is mixed with the stated amounts of solvent and emulsifier, and the concentrate is diluted with water to the desired concentrations.
Cotton plants (Gossypium hirsutum) infested by eggs, larvae and pupae of the white fly Bemisia tabaci are dipped into a preparation of active compound of the desired concentration.
After the desired period of time, the kill in % is determined. 100% means that all animals have been killed; 0% means that none of the animals have been killed.

Row | Structure (SMILES) | Kill in % after 14 days
1 | Cc1cc(C)c(C2=C(OC(=O)CC(C)(C)C)C3(CCCCC3)OC2=O)c(C)c1 | 50%
2 | Cc1cc(C)c(C2=C(OC(=O)C(C)(C)C)C3(CCCC3)OC2=O)c(C)c1 | 0%
3 | Cc1cc(C)c(C2=C(OC(=O)CC(C)C)C3(CCCC3)OC2=O)c(C)c1 | 0%
4 | Cc1cc(C)c(C2=C(OC(=O)CC(C)(C)C)C3(CCCC3)OC2=O)c(C)c1 [formula (I), 3-(2,4,6-Trimethylphenyl)-4-neopentylcarbonyloxy-5,5-tetramethylene-Δ^3-dihydrofuran-2-one] | 95%

Reference: US6436988B1, “Use of 3-(2,4,6-trimethylphenyl)-4-neopentylcarbonyloxy-5,5- tetramethylene-Δ3-dihydrofuran-2-one for controlling the white fly” (Bayer Aktiengesellschaft, priority 1999, dated 2002)
